These results are taken from patent US20110183975A1, “NOVEL 6-AZAINDOLE AMINOPYRIMIDINE DERIVATIVES HAVING NIK INHIBITORY ACTIVITY” (priority 2008, published 2011).

Molecules are shown by their SMILES.

The target of one test is T1, Truncated human NIK (Homo sapiens, UniProt Q99558).
T1 construct: made in house; host or cells: Sf9 insect cells (baculovirus)
In words: NIK inhibitory activity: SRPKtide phosphorylation with [γ-33P] ATP, filter plate. The settings on record: GST-tagged truncated human NIK, 20 μM peptide substrate, 10 μM ATP, 25° C., 240 minutes. The test is classed as biochemical. The source says: Truncated human NIK [319-947(end) amino acids of accession number AAH35576] was expressed in sf9 cells as N-terminus gluthatione-S-transferase (GST)-tagged protein using baculovirus expression system. The sf9 cells were harvested and lysed, and then the GST-tagged human NIK protein was applied onto a glutathione column (GSTrap, GE Healthcare) and eluted from the column with reduced glutathione. The active fractions were desalted with a desalting column (PD-10, GE Healthcare) to give a purified enzyme.
For measurement of the activity of NIK, the SRPKtide peptide (Arg-Ser-Arg-Ser-Arg-Ser-Arg-Ser-Arg-Ser-Arg-Ser-Arg-Ser-Arg-NH2) (SEQ.ID.NO.:1) was synthesized as a substrate, as described above.
The phosphorylation reaction was conducted using 384 well plate, and the reaction volume was 10.5 μL/well. The reaction buffer is comprised of 10 mM 3-Morpholinopropanesulfonic acid buffer (pH 7.4), 5 mM magnesium chloride, 1 mM O,O′-Bis (2-aminoethyl) ethyleneglycol-N,N,N′,N′-tetraacetic acid (EGTA) and 1 mM dithiothreitol. Thereto, the purified NIK protein, 20 μM of the peptide substrate, 10 μM of adenosine 5′-triphosphate (ATP) and 0.5 μCi [γ-33P] ATP solution were added, and then the reaction was carried out at 25° C. for 240 minutes. The [γ-33P]-labeled ATP was purchased from PerkinElmer Inc.
After the termination of the reaction by adding 20 μL of 350 mM phosphoric acid (H3PO4), the substrate peptide was adsorbed on a filter plate (Millipore Multiscreen, MZPHN0W50). The substrate-bound filter plate was washed with 130 mM phosphoric acid for several times and then 8 μL of Microscinti-O (PerkinElmer Inc.) was added to the each well. The radiation activity of the peptide was measured with TopCount NXT Microscintillation Counter (PerkinElmer Inc.).
The compound to be tested was diluted in dimethylsulfoxide (DMSO) and then 0.5 μL of this solution was added to each well. Each control well was provided by adding 0.5 μL of DMSO to the well in place of the DMSO solution containing the compound to be tested.

Test [1] has as its target T2, human NIK (U-2 OS Tet-On-NIK cells) (Homo sapiens, UniProt Q99558).
T2 construct: expressed in transfected cells; host or cells: U-2 OS Tet-On cells carrying NF-kappa B reporter genes, stably transfected with pTRE2hyg-NIK
In words: Cellular NIK inhibitory activity using ELISA-based IKKalpha phosphorylation assay. It counts as cell-based. The settings on record: NIK dependent IKKalpha phosphorylation, doxycycline 2 micrograms/ml, 24 hours. The protocol:
NF-kappa B reporter genes (Clontech Laboratories, Inc.) was introduced into U-2 OS Tet-On cell line (Clontech Laboratories, Inc.) by the co-transfection with puromycin resistance gene (Clontech Laboratories, Inc.). […] NIK protein expression in this established cells (U-2 OS Tet-On-NIK) was controlled in a doxycycline dependent manner. The cells were cultured in DMEM containing 10% FBS, 100 units/ml of penicillin, 0.1 mg of streptomycin sulfate, 100 microgram/ml of hygromycin and 1 microgram/ml of puromycin (Growth medium).
U-2 OS Tet-On-NIK cells were plated on 96-well plate (Nunc) at 20000 cells per well and were incubated overnight at 37° C. in 5% CO2-95% air. The tested compound was diluted in dimethylsulfoxide (DMSO) and further diluted with a growth medium. Then the compound solution and doxycycline (Clontech Laboratories, Inc.) solution (final working concentration is 2 micrograms/ml) were simultaneously added to the each well. […]
Rabbit anti-IKKalpha [pSpS176/180] phosphospecific antibody (Biosource International, Inc.) or rabbit anti-IKKalpha antibody (Abcam, Inc.) was incubated on wells of an MAXISORP ELISA plate (Nunc) at 4° C. for overnight. […] After stopping HRP-reactions (SureBlue Reserve™ TMB substrate, Kirkegaard & Perry Laboratories, Inc.) by 1N hydrochloric acid, the optical density in each well was determined using a SpectraMax Plus 384 (Molecular Devices Corporation) at 450 nm.
Cellular NIK inhibitory activity of the test compound was represented as IC50 value determined by the following procedure.
Optical density of phospho-IKKalpha in each sample was normalized using the ratio of phospho-IKKalpha to total IKKalpha. The % of Control value was calculated by the following equation. […]
Then the IC50 value for NIK dependent IKKalpha phosphorylation was determined.
Background: An ELISA detects its analyte on a solid surface through an enzyme-linked reagent.

In test [2] the target is T3, human ROCK2 catalytic domain (Homo sapiens, UniProt O75116).
T3 construct: made in house; host or cells: Sf9 insect cells
T3 sequence (O75116 11-552): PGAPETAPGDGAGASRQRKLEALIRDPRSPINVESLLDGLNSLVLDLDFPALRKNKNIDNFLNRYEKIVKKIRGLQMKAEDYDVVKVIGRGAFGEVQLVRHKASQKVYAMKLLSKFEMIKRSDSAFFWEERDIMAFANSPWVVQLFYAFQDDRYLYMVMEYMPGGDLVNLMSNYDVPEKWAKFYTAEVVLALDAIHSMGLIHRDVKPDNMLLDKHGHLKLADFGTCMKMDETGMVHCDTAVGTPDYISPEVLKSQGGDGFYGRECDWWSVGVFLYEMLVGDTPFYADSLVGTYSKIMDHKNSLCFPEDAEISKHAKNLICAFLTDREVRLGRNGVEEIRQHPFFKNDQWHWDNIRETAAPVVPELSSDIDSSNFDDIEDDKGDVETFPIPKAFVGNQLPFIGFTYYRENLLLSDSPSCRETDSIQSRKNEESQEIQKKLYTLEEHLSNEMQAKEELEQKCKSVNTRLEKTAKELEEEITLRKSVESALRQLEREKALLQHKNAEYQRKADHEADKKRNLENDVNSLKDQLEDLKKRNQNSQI
Kind of test: ROCK2 inhibitory activity: peptide phosphorylation, IMAP fluorescence polarization. It counts as biochemical. The settings on record: for IC50: His-tagged human ROCK2, 100 nM peptide substrate, 5 μM ATP, 30° C., 150 minutes; for Selectivity of NIK over ROCK2: IC50 for ROCK2 divided by IC50 for NIK. The source says: cDNA of N-terminal His-tagged human ROCK2 catalytic domain [11-552 amino acids of accession number NP_00004841.2] was integrated into an expression vector, which was then highly expressed in sf9 cells. The sf9 cells were harvested and lysed, and then the His-tagged human ROCK2 protein was applied onto HisTrap HP (GE Healthcare) and eluted from the column with imidazole. The active fractions were desalted with a desalting column (PD-10, GE Healthcare) to give a purified enzyme.
For measurement of the activity of ROCK2, the substrate used was a synthetic peptide (5-FAM (5-carboxyfluorescein)-Ala-Lys-Arg-Arg-Arg-Leu-Ser-Ser-Leu-Arg-Ala-OH) (SEQ.ID.NO.:2) (Trauger J W. et. al, Biochemistry, 41, 8948-8953 (2002)), which was custom-made by JPT Peptide Technologies GmbH.
For detection of phosphorylation of the substrate, IMAP® technology (Molecular Devices, Co. Ltd.) (Gaudet E W. et. al, J. Biomol. Screen, 8, 164-175(2003)) was used.
The phosphorylation reaction was conducted using 384 well plate, and the reaction volume was 10.5 μL/well. The reaction buffer is comprised of 50 mM Tris-chloride buffer (pH 7.5), 10 mM magnesium acetate, 1 mM O,O′-Bis(2-aminoethyl)ethyleneglycol-N,N,N′,N′-tetraacetic acid (EGTA) and 1 mM dithiothreitol. Thereto, the purified ROCK2 protein, 100 nM of the peptide substrate, and 5 μM of adenosine 5′-triphosphate were added, and then the reaction was carried out at 30° C. for 150 minutes.
Thereafter, in order to terminate and detect the reaction, 30 μL of the IMAP (registered trademark) binding reagent (IMAP Progressive Binding Reagent) that had been diluted (1:500) in the 1× IMAP binding buffer A (IMAP Progressive Binding Buffer A, 5× stock) was added to each well. The solution stood still for 30 minutes in the dark, and then fluorescence polarization was measured using a high-end microplate reader (excitation wavelength: 485 nm; emission wavelength: 520 nm).
The compound to be tested was diluted in dimethylsulfoxide (DMSO) and then 0.5 μL of this solution was added to each well. Each control well was provided by adding 0.5 μL of DMSO to the well in place of the DMSO solution containing the compound to be tested. In Table 3, the selectivity of NIK over ROCK2 was calculated by dividing the value of IC50 for ROCK2 by the value of IC50 for NIK.

T2 sequence (Q99558 whole entry): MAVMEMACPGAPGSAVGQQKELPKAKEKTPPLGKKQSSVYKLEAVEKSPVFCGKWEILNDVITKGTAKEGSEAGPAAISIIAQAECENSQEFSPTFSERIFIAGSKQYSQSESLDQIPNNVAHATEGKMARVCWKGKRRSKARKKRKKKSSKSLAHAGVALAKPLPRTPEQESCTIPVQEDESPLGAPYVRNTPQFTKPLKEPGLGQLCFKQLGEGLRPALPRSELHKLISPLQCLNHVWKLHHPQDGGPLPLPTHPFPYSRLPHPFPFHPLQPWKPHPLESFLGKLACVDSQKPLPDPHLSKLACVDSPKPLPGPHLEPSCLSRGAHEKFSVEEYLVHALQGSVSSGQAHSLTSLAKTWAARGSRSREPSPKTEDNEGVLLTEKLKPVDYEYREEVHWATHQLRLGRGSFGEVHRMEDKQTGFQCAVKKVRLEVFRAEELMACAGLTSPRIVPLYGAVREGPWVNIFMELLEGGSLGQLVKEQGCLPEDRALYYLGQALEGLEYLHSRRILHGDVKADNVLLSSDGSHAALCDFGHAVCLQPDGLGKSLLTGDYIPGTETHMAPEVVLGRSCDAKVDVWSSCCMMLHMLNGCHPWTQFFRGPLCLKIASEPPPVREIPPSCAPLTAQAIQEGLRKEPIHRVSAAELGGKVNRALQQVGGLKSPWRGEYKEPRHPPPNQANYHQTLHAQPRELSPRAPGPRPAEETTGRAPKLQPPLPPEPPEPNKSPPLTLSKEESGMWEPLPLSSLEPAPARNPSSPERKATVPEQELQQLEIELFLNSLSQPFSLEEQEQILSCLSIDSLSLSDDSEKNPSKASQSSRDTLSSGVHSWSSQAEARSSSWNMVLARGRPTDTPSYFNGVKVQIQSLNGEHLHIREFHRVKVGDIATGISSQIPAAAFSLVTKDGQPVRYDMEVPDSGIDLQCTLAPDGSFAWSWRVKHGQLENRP
T1 sequence (Q99558 319-947): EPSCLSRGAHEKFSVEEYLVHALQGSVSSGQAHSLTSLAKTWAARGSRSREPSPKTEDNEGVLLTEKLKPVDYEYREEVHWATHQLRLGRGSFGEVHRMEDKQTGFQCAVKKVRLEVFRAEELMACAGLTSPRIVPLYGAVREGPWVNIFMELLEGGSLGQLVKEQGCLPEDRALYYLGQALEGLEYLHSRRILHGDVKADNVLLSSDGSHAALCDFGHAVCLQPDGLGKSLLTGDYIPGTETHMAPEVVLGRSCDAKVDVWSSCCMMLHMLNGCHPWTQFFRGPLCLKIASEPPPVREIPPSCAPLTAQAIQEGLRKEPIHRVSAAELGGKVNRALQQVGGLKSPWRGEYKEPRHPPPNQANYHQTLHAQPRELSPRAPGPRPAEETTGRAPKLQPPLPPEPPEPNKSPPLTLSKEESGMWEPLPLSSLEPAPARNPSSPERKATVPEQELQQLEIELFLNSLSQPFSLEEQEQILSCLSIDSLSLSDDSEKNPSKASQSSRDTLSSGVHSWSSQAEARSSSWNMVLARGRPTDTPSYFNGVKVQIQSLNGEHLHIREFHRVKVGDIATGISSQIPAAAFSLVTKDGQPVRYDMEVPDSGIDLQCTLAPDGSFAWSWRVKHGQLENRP

As a reminder, the IC50 is the midpoint of a concentration-inhibition curve. On to `CC(C)n1cc(-c2ccnc(Nc3cc(C(N)=O)ccc3OCc3ccccc3)n2)c2ccncc21` [Example 94, 4-Benzyloxy-3-[4-(1-isopropyl-1H-pyrrolo[2,3-c]pyridin-3-yl)-pyrimidin-2-ylamino]-benzamide], for which the IC50 worked out at 84.5 nM at Truncated human NIK, 230 nM in test [1] and 1010 nM in test [2]. The “Selectivity of NIK over ROCK2” value in test [2] is on record as 11.9.
Take `CNC(=O)c1ccc(OC)c(Nc2nccc(-c3cn(C(C)C)c4cnccc34)n2)c1` [Example 71, 3-[4-(1-Isopropyl-1H-pyrrolo[2,3-c]pyridin-3-yl)-pyrimidin-2-ylamino]-4-methoxy-N-methyl-benzamide]: the IC50 at Truncated human NIK stood at 26.1 nM; in test [1], 200 nM; in test [2], 4520 nM. In test [2], the “Selectivity of NIK over ROCK2” value turned out to be 173.3.
As for `Cc1ccc(C(N)=O)cc1Nc1nccc(-c2cn(C(C)C)c3cnccc23)n1` [Example 85, 3-[4-(1-Isopropyl-1H-pyrrolo[2,3-c]pyridin-3-yl)-pyrimidin-2-ylamino]-4-methyl-benzamide], the IC50 worked out at 63.4 nM at Truncated human NIK, 140 nM in test [1] and 2590 nM in test [2]. Moreover, the “Selectivity of NIK over ROCK2” value in test [2] was determined as 40.9.
Regarding `CC(C)n1cc(-c2ccnc(Nc3ccccc3)n2)c2ccncc21` [Example 3, [4-(1-Isopropyl-1H-pyrrolo[2,3-c]pyridin-3-yl)-pyrimidin-2-yl]-phenyl-amine], the IC50 amounted to 423 nM on Truncated human NIK and 86 nM in test [2]. The “Selectivity of NIK over ROCK2” value in test [2] is listed as 0.20.
